Entries after “also recorded” stand apart in the source; their conditions may differ.
Experiments:
mice = assay: Repeat-dose toxicity study in mice; type: in vivo; details: subcutaneous
Description: (§1) Pre-clinical toxicology studies were conducted in 2 species (rodent/mice and non-rodent/dogs). Multiple high doses of C34-PEG4-Chol, up to 12 mg/kg or 10 x the maximum proposed human dose, were administered daily in mice and twice weekly (the intended frequency in humans) in dogs for 14 days, with a 7-day recovery period for both species. […] Toxicology results were analysed independently by the Medicines and Healthcare Regulatory Authority (MHRA), UK before a decision was made to proceed with trial in humans.
(§2) Repeat-dose toxicity studies were conducted in mice (n = 20 at 6 mg/kg/day, n = 20 at 12 mg/kg/day) and dogs (n = 6 at 6 mg/kg/day, n = 6 at 12 mg/kg/day). The subcutaneous route of administration was selected for both species. The highest dose of 12 mg/kg/day was based on the maximal achievable dose with the formulation, and corresponded to 10x the maximum proposed human dose (80 mg, 1.15 mg/kg). No premature decedents occurred in either species. Following observation, animals were euthanised.

[1] = Repeat-dose toxicity study in mice; type: in vivo; details: mouse, in vivo, sc, subcutaneous, daily for 14 days, 7-day recovery, read-out: No-observed-adverse-effect-level (NOAEL)
Description: as §1, §2

in vivo = details: rhesus monkey, rhesus monkeys; for AUC(0-inf): plasma LC-MS, mean of three animals per point
Description: C34-PEG4-Chol first in man – Supplementary Information
Supplementary Information 2:
Preclinical Pharmacokinetics of C34-PEG4-Chol […]
C34-PEG4-Chol was formulated in 10 mM phosphate buffered saline (pH 7.2). The concentration of C34-PEG4-Chol in plasma samples was determined by LC-MS as previously […]
Figure S4. Pharmacokinetics of C34-PEG4-Chol in rhesus monkeys 2.0 mg/kg or 1.0 mg/kg (SC and IV administration, respectively) of C34-PEG4-Chol in 10mM phosphate buffered saline (PBS) were administered to rhesus monkeys: volume of administration 0.5 mL/kg. The concentration of the dosing solution was determined immediately after dosing with the same analytical method utilized to monitor peptide plasma concentration with time, and the analytical curves were adjusted accordingly. Each data point is the mean of three animals.
Table S4. Calculated pharmacokinetics parameters of C34-PEG4-Chol in rhesus monkeys, following intravenous (IV) and subcutaneous (SC) administration. […]

[2] = Human plasma pharmacokinetics after a single subcutaneous dose; type: in vivo; design: Area under plasma-concentration-time-curve: unit not given here; details: for half-life / Cmax / Tmax / Vd: sc; for Cmax: LC-MS/MS, non-compartmental, read-out: Maximum observed concentration; for Tmax: read-out: Time to maximum observed concentration; for Vd: read-out: Volume of distribution; for Time-to-MEC (time plasma concentrations remained above the minimum effective concentration): assay cut-off 62.5 ng/mL used as surrogate
Description: Intensive pharmacokinetic sampling was performed over the first 24 hours subsequent to dosing with samples collected pre-dose, 0.5 h, 1 h, 2 h, 4 h, 6 h, 8 h, 12 h, 24 h. Thereafter pharmacokinetic sampling was undertaken on days 2, 3, 4, 7, 10, 14, 21 and 28. Plasma samples (100 µL) were extracted in 300 µL of acetonitrile containing 1% formic acid; vortexed and centrifuged at 4000 rpm for 10 minutes. The supernatant was transferred into autosampler vials, and 25 μL injected onto the LC-MS/MS. Quantitative analysis of C34-PEG4-Chol was performed by LC-MS/MS using a Thermo Quantum Access triple quadrupole mass spectrometer, interfaced with a heated electrospray ionisation (H-ESI) source (Thermo Fisher Scientific, Hemel Hempstead, UK). The HPLC system included a variable loop Accela autosampler and an Accela pump (ThermoScientific, Hemel Hempstead, UK). Chromatographic separation was achieved using a reverse-phase XBridge Peptide BEH C18 column (3.5 µm; 50 mm × 2.1 mm) (Waters Corporation, Milford, US) interfaced with a 2 µm C18 Quest column saver (Thermo Scientific, Hemel Hempstead, UK). The gradient mobile phase, consisting of a solvent A (0.1% formic acid in Water) and solvent B (0.1% formic acid in acetonitrile), was delivered at a flow rate of […]. Detection of C34-PEG4-Chol was performed in the pseudo Selected Reaction Monitoring mode, monitoring a triple charged molecular ion [M + 3 H]3 + at m/z 1756.8. The internal standard (quinoxaline), was monitored at m/z 313.1 → 246.1. Peak area ratios of compound to internal standard were utilized to construct a calibration curve with a weighting of 1/x2. Data acquisition and processing was performed using LCQuan software (Version 2.7, Thermo Scientific, Hemel Hempstead, UK). The assay calibration range was between 62.5–10,000 ng/mL; inter and intra-assay accuracy and precision at the assay limit of quantification (LLQ) fell within the designated ±20% of the nominal value, and were within ±15% for all QC levels.
Pharmacokinetic parameters were derived via non-compartmental modeling. The area-under-the-concentration-time-curve (AUC) was calculated following a single dose, assuming linear decrease over time, by linear trapezoidal method. The maximum concentration (Cmax) observed at each dose and the time-to-Cmax (Tmax) were calculated. The time to reach minimum effective concentration was assessed in order to determine the frequency of future dosing regimens. […] Given our assay cut-off was 62.5 ng/mL, our assay cut off was used as a surrogate for the IC90.

dogs = assay: Repeat-dose toxicity study in dogs; type: in vivo; details: subcutaneous
Description: as §1, §2

[3] = human, in vivo, 10 mg, participant 1, single SC 10 mg
[4] = human, in vivo, 10 mg, participant 3, single SC 10 mg
[5] = human, in vivo, 20 mg, participant 5, single SC 20 mg

CC[C@H](C)[C@H](NC(=O)[C@H](CC(C)C)NC(=O)[C@H](CO)NC(=O)[C@H](Cc1c[nH]cn1)NC(=O)[C@@H](NC(=O)[C@H](CC(C)C)NC(=O)[C@H](CO)NC(=O)[C@@H](NC(=O)[C@H](Cc1ccc(O)cc1)NC(=O)[C@H](CC(N)=O)NC(=O)[C@H](CC(N)=O)NC(=O)[C@@H](NC(=O)[C@H](CCC(=O)O)NC(=O)[C@H](CCCNC(=N)N)NC(=O)[C@H](CC(=O)O)NC(=O)[C@H](Cc1c[nH]c2ccccc12)NC(=O)[C@H](CCC(=O)O)NC(=O)[C@H](CCSC)NC(=O)[C@H](Cc1c[nH]c2ccccc12)NC(C)=O)[C@@H](C)CC)[C@@H](C)O)[C@@H](C)CC)C(=O)N[C@@H](CCC(=O)O)C(=O)N[C@@H](CCC(=O)O)C(=O)N[C@@H](CO)C(=O)N[C@@H](CCC(N)=O)C(=O)N[C@@H](CC(N)=O)C(=O)N[C@@H](CCC(N)=O)C(=O)N[C@@H](CCC(N)=O)C(=O)N[C@@H](CCC(=O)O)C(=O)N[C@@H](CCCCN)C(=O)N[C@@H](CC(N)=O)C(=O)N[C@@H](CCC(=O)O)C(=O)N[C@@H](CCC(N)=O)C(=O)N[C@@H](CCC(=O)O)C(=O)N[C@@H](CC(C)C)C(=O)N[C@@H](CC(C)C)C(=O)NCC(=O)N[C@@H](CO)C(=O)NCC(=O)N[C@@H](CSCC(=O)NCCOCCOCCOCCOCCC(=O)O[C@H]1CC[C@@]2(C)C(=CC[C@H]3[C@@H]4CC[C@H]([C@H](C)CCCC(C)C)[C@@]4(C)CC[C@@H]32)C1)C(N)=O [C34-PEG4-Chol]
Injection site reactions (ISRs) (mice): had not been observed
Tolerability (mice; up to 12 mg/kg/day for 14 days): well tolerated
NOAEL at 336 h [1]: 12 mg/kg/day
clearance (in vivo; IV 1.0 mg/kg): 4.68 mL/h/kg
AUC(0-inf) (in vivo; IV 1.0 mg/kg in 10 mM PBS): 41.5 µM·h
Vd (in vivo; IV 1.0 mg/kg, read-out: Vdss): 0.055 L/kg
half-life (in vivo; IV 1.0 mg/kg, read-out: t½ (converted)): 510 min
Cmax (in vivo; SC 2.0 mg/kg): 1150 nM
Tmax (in vivo; SC 2.0 mg/kg): 6.7 h
bioavailability (in vivo; SC 2.0 mg/kg): 45.3%
AUC(0-inf) (in vivo; SC 2.0 mg/kg in 10 mM PBS): 37.5 µM·h
half-life [2, 3]: 2880 min
Cmax ([2]; human, in vivo, 10 mg, participant 1, single SC 10 mg, plasma): 418 ng/mL
Tmax [2, 3]: 2 h
Vd [2, 3]: 24 L
half-life [2, 4]: 3240 min
Cmax ([2]; human, in vivo, 10 mg, participant 3, single SC 10 mg, plasma): 278 ng/mL
Tmax [2, 4]: 6 h
Vd [2, 4]: 39.5 L
half-life [2, 5]: 2760 min
Cmax ([2]; human, in vivo, 20 mg, participant 5, single SC 20 mg, plasma): 1030 ng/mL
Tmax [2, 5]: 2 h
Vd [2, 5]: 19.5 L
AUC ([2]; human, in vivo, participant 3, single SC 10 mg, linear trapezoidal, read-out: Area under plasma-concentration-time-curve): 200 ng·h/mL
level at 72 h ([2]; human, plasma, two subjects, single SC 10 mg, above the LLOQ, read-out: Plasma concentration at 72 hours): > 62 ng/mL
Area under plasma-concentration-time-curve ([2]; participant 5, single SC 20 mg, linear trapezoidal): 506
Time-to-MEC (time plasma concentrations remained above the minimum effective concentration) ([2]; single SC 10 mg): 72 h
Time-to-MEC (time plasma concentrations remained above the minimum effective concentration) ([2]; single SC 20 mg): 96 h
Half-life, range over the three participants ([2]; single SC 10, 10 and 20 mg): 46 to 54 h
Tolerability (dogs; 6 and 12 mg/kg, 14 days): well tolerated
Injection site findings (dogs; also seen in controls, greater severity with the peptide): some subcutaneous inflammation at the injection sites; also recorded: mild and reversible
